Data published in PubChem BioAssay (NCI).
Where “and” joins values, the source holds several entries; their conditions need not be identical. Equal entries are not always repeated.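 Exposure lasted 48 hours, with cells grown in 96-well plates and compounds tested at five concentrations. Here, GI50 denotes the concentration required for 50% inhibition of growth. TGI marks complete inhibition of growth.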

Experiments:
Experiment in all cases: NCI tumour cell line growth inhibition, 48 h
[1] = test system: DLD-1 colon
[2] = test system: DMS 273 small cell lung
[3] = test system: HOP-18 NSCLC
[4] = test system: KM20L2 colon
[5] = test system: LXFL 529 NSCLC
[6] = test system: M19-MEL melanoma
[7] = test system: SNB-78 CNS
[8] = test system: MDA-N
[9] = test system: RXF-631 renal
[10] = test system: P388 leukemia
[11] = test system: P388/ADR leukemia
[12] = test system: SN12K1 renal

Row | Structure (SMILES) | TGI [1] | TGI [2] | TGI [3] | TGI [4] | TGI [5] | TGI [6] | TGI [7] | TGI [8] | TGI [9] | further results
1 | Cn1c2c(c3ccccc31)CCN(CCCN1CCN(c3ccccc3)CC1)C2=O | 46.6 µM | 52.4 µM | 32.9 µM | 25.4 µM | 36.3 µM | 38.2 µM | – | – | – | –
2 | O=C(O)CCCc1cc2c(s1)-c1cccc3cccc-2c13 | > 100 µM | > 100 µM | – | > 100 µM | > 100 µM | – | 94.9 µM | – | – | –
3 | Nc1nc(-c2ccc3ccccc3c2)cc(-c2cc(-c3ccc4ccccc4c3)nc(N)n2)n1 | – | – | – | – | – | – | – | > 100 µM | – | –
4 | Cc1cc(N(CCC#N)CCC#N)ccc1CC1N=C(c2ccccc2)OC1=O (centres undefined) | > 100 µM | > 100 µM | – | > 100 µM | > 100 µM | > 100 µM | – | – | > 100 µM | –
5 | C=C(C)C1CCC2(C(=O)O)CCC3(C)C(CCC4C5(C)CCC(O)C(C)(C)C5CCC43C)C12 (centres undefined) | – | – | – | – | – | – | – | 54.9 µM | – | –
6 | O=c1[nH]c(-c2ccc([N+](=O)[O-])cc2)nc2ccc(Cl)cc12 | – | > 100 µM | – | > 100 µM | > 100 µM | > 100 µM | > 100 µM | – | – | –
7 | C/C(CC(=O)Nc1cccc(C)c1C)=N\NC(N)=S | > 100 µM | > 100 µM | > 100 µM | > 100 µM | > 100 µM | > 100 µM | > 100 µM | – | > 100 µM | –
8 | COC(=O)C1=Cc2cn(S(=O)(=O)c3ccc(C)cc3)c3cccc(c23)C(C=C(C)C)N1C(C)=O (centres undefined) | > 100 µM | > 100 µM | > 100 µM | > 100 µM | > 100 µM | > 100 µM | > 100 µM | – | – | –
9 | COC(=O)[C@H](C)[C@@H]1CC[C@](C)(CCC2=C(C)CCCC2(C)C)OO1 | – | – | – | – | – | – | – | > 25 µM | – | –
10 | O=c1sc(-c2nc3ccccc3[nH]2)c(/N=C/c2ccccc2)n1-c1ccccc1 | > 100 µM | > 100 µM | > 100 µM | – | > 100 µM | > 100 µM | > 100 µM | – | – | –
11 | [Au+].c1c[n-]cn1.c1ccc([PH+](c2ccccc2)c2ccccc2)cc1 | – | > 44 µM | 4.35 µM | 58.3 µM | 2.95 µM | 11.9 µM | > 45.2 µM | 12.9 µM | – | GI50 [2]: 7.87 µM; GI50 [3]: 2080 nM; GI50 [4]: 21.9 µM; GI50 [5]: 1590 nM; GI50 [6]: 3.4 µM; GI50 [8]: 3.17 µM; GI50 [7]: 7570 nM
12 | CC(C)(N)C(=O)N[C@@H]1C(=O)N2[C@@H]1SC(C)(C)[C@@H]2C(=O)O | – | – | – | – | – | – | – | > 100 µM | – | –
13 | CN1c2ccccc2S(=O)(=O)n2c(COc3ccccc3)nnc21 | – | – | – | – | – | – | – | > 100 µM | – | –
14 | c1ccc(N2N=NC3C4CC(C5c6ccccc6C45)C32)cc1 (centres undefined) | > 100 µM | > 100 µM | – | > 100 µM | > 100 µM | 46.7 µM | > 100 µM | – | > 100 µM | –
15 | Cc1cc(C)c(C2=NO[C@@H]3C(=O)N(c4ccc(Cc5ccc(N6C(=O)[C@H]7C(c8c(C)cc(C)cc8C)=NO[C@H]7C6=O)cc5)cc4)C(=O)[C@H]23)c(C)c1 | > 100 µM | > 100 µM | > 100 µM | > 100 µM | > 100 µM | > 100 µM | > 100 µM | – | – | –
16 | O=C(O)c1ccccc1C1c2ccc(Cl)cc2Oc2cc(Cl)ccc21 | > 100 µM | > 100 µM | > 100 µM | > 100 µM | > 100 µM | > 100 µM | – | – | > 100 µM | –
17 | CN(CC1NCCCC1O)C12CC3CC(CC(C3)C1)C2 (centres undefined) | > 100 µM | > 100 µM | > 100 µM | > 100 µM | > 100 µM | > 100 µM | – | – | – | –
18 | COc1cc(=O)oc(/C=C/CO)c1C | > 100 µM | > 100 µM | > 100 µM | > 100 µM | > 100 µM | > 100 µM | – | – | > 100 µM | –
19 | CCOC(=O)Cn1c(=O)[nH]c(=O)c2[nH]cnc21 | > 100 µM | > 100 µM | > 100 µM | > 100 µM | > 100 µM | > 100 µM | > 100 µM | – | > 100 µM | –
20 | O=C(NCCCl)NCc1ccccc1 | – | – | – | – | – | – | – | > 100 µM | – | –
21 | CCC1OC(=O)CC(O)C(C)C(OC2OC(C)CC(N(C)C)C2O)C(CC=O)CC(C)C(=O)/C=C/C2(C)OC2C1C (centres undefined) | – | – | – | – | – | – | – | > 100 µM | – | –
22 | C=CCn1c(=O)c(C(=O)NC(=O)OCC)cn(C2CCCCC2)c1=O | > 100 µM | > 100 µM | > 100 µM | > 100 µM | > 100 µM | – | > 100 µM | – | > 100 µM | –
23 | COC1C(C)OC(OC2CC(C)(O)Cc3cc4c(c(O)c32)C(=O)c2c(O)cc3c(c2C4=O)OC2OC3(C)C(O)C(N(C)C)C2O)C(OC)C1(C)OC (centres undefined) | 5.12 µM and 3.91 µM | 0.557 µM and 0.137 µM | 0.919 µM and 3.11 µM | 0.571 µM and 1.6 µM | 2.84 µM | – | 1.78 µM and 2.57 µM | 0.00187 µM | 7.14 µM | GI50 [1]: 183 nM; GI50 [2]: 0.0298 µM; GI50 [3]: 157 nM; GI50 [4]: 0.0651 µM; TGI [10]: 510 nM; TGI [11]: 7.1 µM; TGI [12]: 60 nM; GI50 [7]: 6.57 nM and 32.7 nM
